Experimental data published in patent EP4775574A1, “FURAN RING-CONTAINING COMPOUND, PHARMACEUTICAL COMPOSITION THEREOF, AND USE THEREOF” (Wuhan Xirui Pharmaceutical Technology Co., Ltd, priority 2023, dated 2025).
Where two headings read alike, the source gives them in different places.

Biological target: T1, Nav1.8 sodium channel (Homo sapiens, UniProt Q9Y5Y9)
T1 construct: host or cells: CHO
Assay: Blocking activity against sodium channel 1.8 (Nav1.8), whole-cell patch-clamp, inhibition rate
Type: cell-based
Description: Experimental objective: The effects of the compounds on the current of the voltage-gated sodium channel (NaV) 1.8 subtype were detected by patch-clamp technique • 2. […] When the cells were detached from the bottom of the dish, about 5 mL of preheated complete medium at 37°C was added. The cell suspension was gently pipetted up and down to separate the aggregated cells. The cell suspension was transferred to a sterile centrifuge tube and centrifuged at 1000 rpm for 5 min to collect the cells. […] First, the voltage was stepped from -130 mV to -10 mV in 10 mV increments for 5 s, and then a 0 mV depolarizing pulse was applied to obtain the half-inactivation voltage (Vhalf). The resting state and half-inactivated state of the sodium current were detected by using a double-pulse protocol. First, the first depolarizing pulse (TP1) was applied to 0 mV for 50 ms to detect the sodium current in the resting state. Then, the voltage was adjusted to Vhalf and maintained for 5 s, followed by restoration of the voltage to -120 mV and maintenance for 20 ms, after which the second depolarizing pulse (TP2) was applied to 0 mV for 50 ms to detect the sodium current in the half-inactivated state. Finally, the voltage was restored to the clamping voltage of -120 mV. Data were repeatedly collected every […] to observe the effect of the drug on the peak values of sodium currents in the two different states. Experimental data were collected by the EPC 10 amplifier (HEKA) and stored in the PatchMaster (HEKA) software. • (2) During patch clamp operation, capillary glass tubes were first pulled into recording electrodes using a microelectrode puller, then the electrodes filled with intracellular solution were installed into the microelectrode holder. Under an inverted microscope, the micromanipulator was used to bring the recording electrode into contact with the cell, and negative pressure suction was applied to form a GΩ seal. At this time, fast capacitance compensation was performed, and then negative pressure was continuously applied to rupture the cell membrane and form the whole-cell recording mode. Finally, slow capacitance compensation was performed, and related parameters were recorded. Leak compensation was not applied. • (3) When the sodium current of whole-cell recording became stable, drug administration was started, and each drug concentration was applied for 5 min (or until the current became stable) before the next concentration was tested. The coverslip coated with cells was placed in the recording bath under an inverted microscope, and the blank control external solution and the test compound working solution were perfused through the recording bath in sequence from low concentration to high concentration by gravity, thereby acting on the cells, while a peristaltic pump was used for liquid exchange during recording. The current detected in the external solution without compounds for each cell was used as its own control group. Each concentration was independently tested twice. All electrophysiological experiments were conducted at room temperature.
First, the current after the effect of each drug concentration and the blank control current were normalized, then the inhibition rate corresponding to each drug concentration was calculated, that is, (1-Icompound /Icontrol), and the mean, standard deviation (SD), and standard error (SE) of the inhibition rate for each concentration were calculated, and the data were expressed as mean ± SE.

[1] = CHO cell line stably expressing Nav1.8, patch-clamp, test concentration not given

T1 sequence (Q9Y5Y9 whole entry): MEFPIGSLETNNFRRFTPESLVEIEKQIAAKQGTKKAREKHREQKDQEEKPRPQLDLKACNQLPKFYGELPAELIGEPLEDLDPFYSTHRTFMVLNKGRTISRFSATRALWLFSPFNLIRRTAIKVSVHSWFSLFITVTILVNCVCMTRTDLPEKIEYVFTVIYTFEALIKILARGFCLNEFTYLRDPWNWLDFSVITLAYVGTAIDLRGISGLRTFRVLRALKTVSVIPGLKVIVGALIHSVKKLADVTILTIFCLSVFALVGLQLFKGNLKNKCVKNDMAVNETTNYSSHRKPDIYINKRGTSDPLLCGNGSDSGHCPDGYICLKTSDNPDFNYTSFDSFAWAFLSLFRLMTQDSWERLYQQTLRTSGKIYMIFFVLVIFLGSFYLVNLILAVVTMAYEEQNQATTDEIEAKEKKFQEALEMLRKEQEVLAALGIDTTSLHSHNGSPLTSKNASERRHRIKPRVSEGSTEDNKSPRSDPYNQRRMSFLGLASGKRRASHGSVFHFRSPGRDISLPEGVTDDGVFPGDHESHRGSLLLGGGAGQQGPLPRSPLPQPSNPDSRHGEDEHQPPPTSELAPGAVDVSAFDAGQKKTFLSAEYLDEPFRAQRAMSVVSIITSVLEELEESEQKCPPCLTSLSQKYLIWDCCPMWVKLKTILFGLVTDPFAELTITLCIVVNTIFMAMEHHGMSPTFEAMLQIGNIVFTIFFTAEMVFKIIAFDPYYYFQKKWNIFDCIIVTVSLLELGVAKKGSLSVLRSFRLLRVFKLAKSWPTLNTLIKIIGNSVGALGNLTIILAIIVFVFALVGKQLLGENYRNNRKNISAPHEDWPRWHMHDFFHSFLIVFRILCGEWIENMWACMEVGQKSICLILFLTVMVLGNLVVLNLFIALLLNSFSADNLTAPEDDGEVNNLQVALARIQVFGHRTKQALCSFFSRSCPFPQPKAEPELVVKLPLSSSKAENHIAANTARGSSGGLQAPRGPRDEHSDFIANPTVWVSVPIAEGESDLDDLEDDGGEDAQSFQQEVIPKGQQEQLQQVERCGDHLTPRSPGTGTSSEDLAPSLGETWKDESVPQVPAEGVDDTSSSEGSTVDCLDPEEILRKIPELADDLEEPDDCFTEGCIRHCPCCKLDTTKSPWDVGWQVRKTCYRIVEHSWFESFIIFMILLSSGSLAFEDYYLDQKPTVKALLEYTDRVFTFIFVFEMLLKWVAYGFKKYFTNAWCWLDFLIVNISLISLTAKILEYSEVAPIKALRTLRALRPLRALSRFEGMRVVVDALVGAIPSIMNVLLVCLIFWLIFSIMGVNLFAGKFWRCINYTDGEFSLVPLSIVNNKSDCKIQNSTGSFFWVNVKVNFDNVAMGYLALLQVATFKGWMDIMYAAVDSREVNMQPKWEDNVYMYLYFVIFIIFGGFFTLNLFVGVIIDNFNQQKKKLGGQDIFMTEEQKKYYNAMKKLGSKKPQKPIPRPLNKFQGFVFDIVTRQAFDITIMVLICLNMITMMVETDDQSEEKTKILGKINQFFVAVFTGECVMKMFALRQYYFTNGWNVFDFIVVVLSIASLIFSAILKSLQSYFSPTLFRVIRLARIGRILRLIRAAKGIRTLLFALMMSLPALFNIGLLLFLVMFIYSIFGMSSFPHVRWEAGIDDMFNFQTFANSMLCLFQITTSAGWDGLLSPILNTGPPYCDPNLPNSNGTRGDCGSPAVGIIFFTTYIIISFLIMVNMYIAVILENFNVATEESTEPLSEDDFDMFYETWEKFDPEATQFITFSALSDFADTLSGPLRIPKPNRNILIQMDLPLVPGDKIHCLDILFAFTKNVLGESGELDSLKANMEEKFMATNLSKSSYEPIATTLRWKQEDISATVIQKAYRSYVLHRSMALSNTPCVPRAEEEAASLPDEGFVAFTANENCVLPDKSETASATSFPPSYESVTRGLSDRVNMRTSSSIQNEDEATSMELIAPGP

Inhibition rate (%)	Structure (SMILES)	Inhibition rate (%) [1]
50.04%	COc1c([C@H]2[C@H](C(=O)Nc3ccnc(C(=O)NN)c3)O[C@@](C)(C(F)(F)F)[C@H]2C)ccc(F)c1F [Example 5]	
89.85%	COc1c([C@H]2[C@H](C(=O)Nc3cc(F)c(F)c(C(=N)NO)c3)O[C@@](C)(C(F)(F)F)[C@H]2C)ccc(F)c1F [Example 13]	
84.01%	COc1c([C@H]2[C@H](C(=O)Nc3cc(C(=N)NO)c(F)cc3F)O[C@@](C)(C(F)(F)F)[C@H]2C)ccc(F)c1F [Example 14]	
56.23%	COc1c([C@H]2[C@H](C(=O)Nc3ccc(F)c(C(=N)NO)c3F)O[C@@](C)(C(F)(F)F)[C@H]2C)ccc(F)c1F [Example 15]	
95.94%	COc1c(C2C(C(=O)Nc3ccc(F)c(C(=N)NC#N)c3)OC(C)(C(F)(F)F)C2C)ccc(F)c1F (centres unmarked) [Example 16]	

Continued, molecule first:

Structure (SMILES)	Inhibition rate (%)	Inhibition rate (%) [1]
CONC(=O)c1cc(NC(=O)[C@@H]2O[C@@](C)(C(F)(F)F)[C@@H](C)[C@H]2c2ccc(F)c(F)c2OC)ccn1 [Example 1]		80.08%
CCONC(=O)c1cc(NC(=O)[C@@H]2O[C@@](C)(C(F)(F)F)[C@@H](C)[C@H]2c2ccc(F)c(F)c2OC)ccn1 [Example 2]	76.36%	
CNNC(=O)c1cc(NC(=O)[C@@H]2O[C@@](C)(C(F)(F)F)[C@@H](C)[C@H]2c2ccc(F)c(F)c2OC)ccn1 [Example 6]		71.63%
COc1c([C@H]2[C@H](C(=O)Nc3cc[n+]([O-])c(C(=N)NO)c3)O[C@@](C)(C(F)(F)F)[C@H]2C)ccc(F)c1F [Example 8]	90.96%	
COc1c([C@H]2[C@H](C(=O)Nc3ccc(F)c(C(=O)NO)c3)O[C@@](C)(C(F)(F)F)[C@H]2C)ccc(F)c1F [Example 9]	97.24%	
COc1c([C@H]2[C@H](C(=O)Nc3ccc(C(F)(F)F)c(C(=N)NO)c3)O[C@@](C)(C(F)(F)F)[C@H]2C)ccc(F)c1F [Example 12]	76.58%	
